Data from PubChem BioAssay AID2060363 (Molecular Pharmacology Branch, DTP, NCI, 2025).
Values joined by “and” are separate entries in the source; they are usually repeats but may differ in a detail not shown here. Equal entries are not always repeated. Each block holds one compound with its values, some of them ahead of it.

System: 156681-154-R-J1-PDC tumor spheroids, viability % test/control
Experiment: Anticancer human tumor 156681-154-R-J1-PDC patient-derived melanoma cell line growth inhibition [TAK]
Conditions: spheroids with HUVEC and MSC; for viability, T/C: stronger effect = lower value
Outline: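 Tumor cells were grown as spheroids with HUVEC and hMSC (60:25:15) and treated with targeted agents combined with TAK-243 or ipatasertib. Drugs were tested in half-log steps down from near the clinical Cmax, or from 10 microM where Cmax was unknown.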

[1] = curve of first compound, second compound 0.3 µM
[2] = curve of first compound, second compound 0.949 µM
[3] = curve of first compound, second compound 3 µM
[4] = curve of first compound, second compound 9.49 µM
[5] = curve of first compound, second compound 30 µM
[6] = second compound 0.3 µM, first compound 0.000316 µM
[7] = second compound 0.3 µM, first compound 0.001 µM
[8] = second compound 0.3 µM, first compound 0.00316 µM
[9] = second compound 0.3 µM, first compound 0.01 µM
[10] = second compound 0.3 µM, first compound 0.0316 µM
[11] = second compound 0.3 µM, first compound 0.1 µM
[12] = second compound 0.949 µM, first compound 0.000316 µM
[13] = second compound 0.949 µM, first compound 0.001 µM
[14] = second compound 0.949 µM, first compound 0.00316 µM
[15] = second compound 0.949 µM, first compound 0.01 µM
[16] = second compound 0.949 µM, first compound 0.0316 µM
[17] = second compound 0.949 µM, first compound 0.1 µM
[18] = second compound 3 µM, first compound 0.000316 µM
[19] = second compound 3 µM, first compound 0.001 µM
[20] = second compound 3 µM, first compound 0.00316 µM
[21] = second compound 3 µM, first compound 0.01 µM
[22] = second compound 3 µM, first compound 0.0316 µM
[23] = second compound 3 µM, first compound 0.1 µM
[24] = second compound 9.49 µM, first compound 0.000316 µM
[25] = second compound 9.49 µM, first compound 0.001 µM
[26] = second compound 9.49 µM, first compound 0.00316 µM
[27] = second compound 9.49 µM, first compound 0.01 µM
[28] = second compound 9.49 µM, first compound 0.0316 µM
[29] = second compound 9.49 µM, first compound 0.1 µM
[30] = second compound 30 µM, first compound 0.000316 µM
[31] = second compound 30 µM, first compound 0.001 µM
[32] = second compound 30 µM, first compound 0.00316 µM
[33] = second compound 30 µM, first compound 0.01 µM
[34] = second compound 30 µM, first compound 0.0316 µM
[35] = second compound 30 µM, first compound 0.1 µM
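Note: spheroids exposed to compounds for 7 days before the endpoint.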

SMILES: Cn1cnc2c(F)c(Nc3ccc(Br)cc3Cl)c(C(=O)NOCCO)cc21 + CC(C)NCC(C(=O)N1CCN(c2ncnc3c2C(C)CC3O)CC1)c1ccc(Cl)cc1
IC50 [1]: 0.602 µM
IC50 [2]: 0.493 µM
IC50 [3]: 0.331 µM
IC50 [4]: < 0.00949 µM
IC50 [5]: < 0.00949 µM
viability, T/C (second compound 0.3 µM, first compound 0.00949 µM): 96.6%
viability, T/C (second compound 0.3 µM, first compound 0.03 µM): 97%
viability, T/C (second compound 0.3 µM, first compound 0.0949 µM): 83.8%
viability, T/C (second compound 0.3 µM, first compound 0.3 µM): 81.2%
viability, T/C (second compound 0.3 µM, first compound 0.949 µM): 30%
viability, T/C (second compound 0.3 µM, first compound 3 µM): 9.69%
viability, T/C (second compound 0.949 µM, first compound 0.00949 µM): 81.1%
viability, T/C (second compound 0.949 µM, first compound 0.03 µM): 78.3%
viability, T/C (second compound 0.949 µM, first compound 0.0949 µM): 86.2%
viability, T/C (second compound 0.949 µM, first compound 0.3 µM): 71.3%
viability, T/C (second compound 0.949 µM, first compound 0.949 µM): 21.4%
viability, T/C (second compound 0.949 µM, first compound 3 µM): 7.25%
viability, T/C (second compound 3 µM, first compound 0.00949 µM): 69.1%
viability, T/C (second compound 3 µM, first compound 0.03 µM): 73.4%
viability, T/C (second compound 3 µM, first compound 0.0949 µM): 68.6%
viability, T/C (second compound 3 µM, first compound 0.3 µM): 53.6%
viability, T/C (second compound 3 µM, first compound 0.949 µM): 13.1%
viability, T/C (second compound 3 µM, first compound 3 µM): 4.67%
viability, T/C (second compound 9.49 µM, first compound 0.00949 µM): 43.3%
viability, T/C (second compound 9.49 µM, first compound 0.03 µM): 44.8%
viability, T/C (second compound 9.49 µM, first compound 0.0949 µM): 36.6%
viability, T/C (second compound 9.49 µM, first compound 0.3 µM): 24.6%
viability, T/C (second compound 9.49 µM, first compound 0.949 µM): 7.73%
viability, T/C (second compound 9.49 µM, first compound 3 µM): 1.63%
viability, T/C (second compound 30 µM, first compound 0.00949 µM): 20.6%
viability, T/C (second compound 30 µM, first compound 0.03 µM): 17.8%
viability, T/C (second compound 30 µM, first compound 0.0949 µM): 15.7%
viability, T/C (second compound 30 µM, first compound 0.3 µM): 10.4%
viability, T/C (second compound 30 µM, first compound 0.949 µM): 2.66%
viability, T/C (second compound 30 µM, first compound 3 µM): 0.54%

SMILES: CC(C)CC(NC(=O)CNC(=O)c1cc(Cl)ccc1Cl)B1OC(=O)CC(CC(=O)O)(C(=O)O)O1 (configuration not stated) + CC(C)NCC(C(=O)N1CCN(c2ncnc3c2C(C)CC3O)CC1)c1ccc(Cl)cc1
IC50 [1]: 0.018 µM
IC50 [2]: 0.0171 µM
IC50 [3]: 0.0122 µM
IC50 [4]: < 0.000316 µM
IC50 [5]: < 0.000316 µM
viability, T/C [6]: 96.8%
viability, T/C [7]: 86.9%
viability, T/C [8]: 94.9%
viability, T/C [9]: 88%
viability, T/C [10]: 13.8%
viability, T/C [11]: 0.27%
viability, T/C [12]: 88.7%
viability, T/C [13]: 87.7%
viability, T/C [14]: 90.2%
viability, T/C [15]: 82.1%
viability, T/C [16]: 13.2%
viability, T/C [17]: 0.34%
viability, T/C [18]: 79.4%
viability, T/C [19]: 76.9%
viability, T/C [20]: 78.9%
viability, T/C [21]: 58.8%
viability, T/C [22]: 8.09%
viability, T/C [23]: 0.23%
viability, T/C [24]: 43.3%
viability, T/C [25]: 41.5%
viability, T/C [26]: 42%
viability, T/C [27]: 40.9%
viability, T/C [28]: 4.19%
viability, T/C [29]: 0.25%
viability, T/C [30]: 17.5%
viability, T/C [31]: 20.3%
viability, T/C [32]: 18.5%
viability, T/C [33]: 15.4%
viability, T/C [34]: 2.17%
viability, T/C [35]: 0.28%

SMILES: COC1CC2CCC(C)C(O)(O2)C(=O)C(=O)N2CCCCC2C(=O)OC(C(C)CC2CCC(OCCO)C(OC)C2)CC(=O)C(C)C=C(C)C(O)C(OC)C(=O)C(C)CC(C)C=CC=CC=C1C (configuration not stated) + CC(C)NCC(C(=O)N1CCN(c2ncnc3c2C(C)CC3O)CC1)c1ccc(Cl)cc1
IC50 [1]: 0.029 µM
IC50 [2]: 0.0029 µM
IC50 [3]: 0.000525 µM
IC50 [4]: < 0.000316 µM
IC50 [5]: < 0.000316 µM
viability, T/C [6]: 80%
viability, T/C [7]: 79.9%
viability, T/C [8]: 65.6%
viability, T/C [9]: 55.7%
viability, T/C [10]: 51.8%
viability, T/C [11]: 45.9%
viability, T/C [12]: 80.8%
viability, T/C [13]: 65.2%
viability, T/C [14]: 48.4%
viability, T/C [15]: 45.1%
viability, T/C [16]: 46.5%
viability, T/C [17]: 40.7%
viability, T/C [18]: 51.8%
viability, T/C [19]: 49.1%
viability, T/C [20]: 37.5%
viability, T/C [21]: 32.5%
viability, T/C [22]: 28.6%
viability, T/C [23]: 29.4%
viability, T/C [24]: 31.6%
viability, T/C [25]: 28%
viability, T/C [26]: 21.2%
viability, T/C [27]: 18.8%
viability, T/C [28]: 19.5%
viability, T/C [29]: 17.4%
viability, T/C [30]: 15.9%
viability, T/C [31]: 13.5%
viability, T/C [32]: 12.1%
viability, T/C [33]: 8.24%
viability, T/C [34]: 9.33%
viability, T/C [35]: 8.33%

IC50 (curve of compound): 0.264 µM and 0.243 µM
SMILES: CC(C)(C)c1nc(-c2cccc(NS(=O)(=O)c3c(F)cccc3F)c2F)c(-c2ccnc(N)n2)s1
viability, T/C (compound 0.0316 µM): 106% and 91.4%
viability, T/C (compound 0.1 µM): 95.8% and 92.3%
viability, T/C (compound 0.316 µM): 41.5% and 37.8%
viability, T/C (compound 1 µM): 17.2% and 17.8%
viability, T/C (compound 3.16 µM): 14.4% and 14.5%
viability, T/C (compound 10 µM): 18%
